Six compounds from ChEMBL document CHEMBL1128401, “Structure-activity relationships in the 8-amino-6,7,8,9-tetrahydro-3H-benz[e]indole ring system. 1. Effects of substituents in the aromatic system on serotonin and dopamine receptor subtypes” (J Med Chem, 1995) can be followed below.

For series [1], the system named is Rattus norvegicus. Kind of series: The compound was tested in vivo for DOPA accumulation in hemispheres (cortex) against reserpine-pretreated rats;I= inactive at the highest dose tested. The series is classed as functional, organism-based.
The target of series [2] is T1, D(3) dopamine receptor (Rattus norvegicus, UniProt P19020). Description: Binding affinity against Dopamine receptor D3 from CHO-K1 cells, using [3H]spiperone as the radioligand. The series is classed as cell-based. As to conditions: read-out: Ki.
Series [3] deals with 5-hydroxytryptamine receptor 1D (Homo sapiens, UniProt P28221). Kind of series: Binding affinity against 5-hydroxytryptamine 1D receptor alpha expressed in CHO-K1 cells, using [3H]-5-HT as the radioligand. The note with it: read-out: Ki. The series is classed as cell-based.
Series [4] deals with 5-hydroxytryptamine receptor 1B (Homo sapiens, UniProt P28222). Description: Binding affinity against 5-hydroxytryptamine 1D receptor beta expressed in CHO-K1 cells, using [3H]5-HT as the radioligand. The series is classed as cell-based. The note with it: read-out: Ki.
For series [5], the system named is Rattus norvegicus. Kind of series: compound was tested in vivo for DOPA accumulation in corpus striatum against reserpine-pretreated rats. The series is classed as functional.
The subject of series [6] is Rattus norvegicus. Description: compound was tested in vivo for 5-HTP accumulation in corpus striatum against reserpine-pretreated rats, activity expressed as ED50. The series is classed as functional.
The target of series [7] is T2, D(2) dopamine receptor (Rattus norvegicus, UniProt P61169). Kind of series: Binding affinity against Dopamine receptor D2 from CHO-K1 cells, using [3H]U-86,170 as the radioligand. The series is classed as cell-based.
Series [8] relates to Rattus norvegicus. Description: compound was tested in vivo for 5-HTP accumulation in hemispheres (cortex) against reserpine-pretreated rats. The series is classed as functional.
The target in series [9] is T3, 5-hydroxytryptamine receptor 1A (Rattus norvegicus, UniProt P19327).
T3 sequence (P19327 whole entry): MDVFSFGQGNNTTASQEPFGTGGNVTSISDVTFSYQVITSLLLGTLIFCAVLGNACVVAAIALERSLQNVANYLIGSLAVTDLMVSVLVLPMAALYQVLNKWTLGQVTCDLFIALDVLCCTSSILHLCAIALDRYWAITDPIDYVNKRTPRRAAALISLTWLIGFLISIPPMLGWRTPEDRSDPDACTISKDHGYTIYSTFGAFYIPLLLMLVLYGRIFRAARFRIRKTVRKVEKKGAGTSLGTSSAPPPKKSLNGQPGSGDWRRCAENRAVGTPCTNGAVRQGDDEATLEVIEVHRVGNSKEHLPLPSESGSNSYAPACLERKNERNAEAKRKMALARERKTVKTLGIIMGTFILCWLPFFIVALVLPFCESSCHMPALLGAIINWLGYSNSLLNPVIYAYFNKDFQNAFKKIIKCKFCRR
Kind of series: Binding affinity against 5-hydroxytryptamine 1A receptor from CHO-K1 cells, using [3H]8-OH-DPAT as the radioligand. The series is classed as cell-based.

In series [10] the test system is Rattus norvegicus. Description: compound was tested in vivo for 5-HTP accumulation in limbic system against reserpine-pretreated rats. The series is classed as functional.
In series [11] the target is T2, D(2) dopamine receptor. Description: Binding affinity against Dopamine receptor D2 expressed in CHO-K1 cells, using [3H]U-86170 as the radioligand. The series is classed as cell-based.
The target of series [12] is T1, D(3) dopamine receptor. Description: Compound was tested for binding affinity against Dopamine receptor D3 expressed in CHO-K1 cells, using [3H]spiperone as the radioligand.;I = inactive (less than 50% inhibition at 1 uM). The series is classed as cell-based.
Series [13] deals with T1, D(3) dopamine receptor. Description: Binding affinity against Dopamine receptor D3 expressed in CHO-K1 cells, using [3H]spiperone as the radioligand. The series is classed as cell-based.
A short description of series [14]: Rat bioavailability after iv/po administration, expressed as %. The series is classed as ADME, organism-based. The note with it: in vivo.
Series [15] is described as follows: tmax in hours at a iv dose of 5.0(pmol/g/h). The note with it: in vivo. The series is classed as ADME, organism-based.
The subject of series [16] is Rattus norvegicus. Description: Bioavailability in male Sprague-Dawley rats, after the iv administration at a dose of 5.0(pmol/g/h). The series is classed as ADME, organism-based. The note with it: in vivo.
For series [17], the system named is Rattus norvegicus. Description: The Compound was tested in vivo for DOPA accumulation in hemispheres (cortex) against reserpine-pretreated rats; P=significant partial reduction only at the highest dose tested (12.5). The series is classed as functional, organism-based.
A short description of series [18]: tmax in hours at a po dose of 40.0(pmol/g/h). The series is classed as ADME, organism-based. As to conditions: in vivo.
Series [19] deals with Rattus norvegicus. Kind of series: Bioavailability in male Sprague-Dawley rats, after the po administration at a dose of 40.0(pmol/g/h). The series is classed as ADME, organism-based. As to conditions: in vivo.
In series [20] the test system is Rattus norvegicus. Description: Bioavailability in male Sprague-Dawley rats, after the iv administration at a dose of 4.0(pmol/g/h). The note with it: in vivo. The series is classed as ADME, organism-based.
Series [21] is described as follows: tmax in hours at a po dose of 10.0(pmol/g/h). The series is classed as ADME, organism-based. As to conditions: in vivo, 10 pmol/g/h.
The nature of series [22]: tmax in hours at a iv dose of 4.0(pmol/g/h). The series is classed as ADME, organism-based. As to conditions: in vivo.
For series [23], the system named is Rattus norvegicus. Kind of series: Bioavailability in male Sprague-Dawley rats, after the po administration at a dose of 10.0(pmol/g/h). The note with it: in vivo. The series is classed as ADME, organism-based.
Series [24] concerns Rattus norvegicus. Kind of series: The Compound was tested in vivo for DOPA accumulation in hemispheres (cortex) against reserpine-pretreated rats; I= inactive at the highest dose tested (12.5). The series is classed as functional, organism-based.
Series [25] in a line: Bioavailability in rat plasma following iv/po dose. The series is classed as ADME, organism-based.
The nature of series [26]: Ratio of the 5-HTP accumulation decrease in limbic regions after oral and subcutaneous administration in rat. The series is classed as functional, Limbic system.
Series [27] has as its system Rattus norvegicus. Kind of series: Bioavailability in male Sprague-Dawley rats, after the iv administration at a dose of 1.0(pmol/g/h). The series is classed as ADME, organism-based. As to conditions: in vivo.
Series [28] can be described thus: tmax in hours at a po dose of 20.0(pmol/g/h). The series is classed as ADME, organism-based. As to conditions: in vivo.
Series [29] concerns Rattus norvegicus. Kind of series: compound was tested in vivo for DOPA accumulation in corpus striatum against reserpine-pretreated rats; I=inactive at the highest dose tested. The series is classed as functional, organism-based.
The test system of series [30] is Rattus norvegicus. Kind of series: The compound was tested in vivo for DOPA accumulation in limbic system against reserpine-pretreated rats;I= inactive at the highest dose tested. The series is classed as functional, organism-based.
The nature of series [31]: tmax in hours at a iv dose of 1.0(pmol/g/h). The series is classed as ADME, organism-based. As to conditions: in vivo.
The subject of series [32] is Rattus norvegicus. Kind of series: Oral bioavailability in rat.
The test system of series [33] is Rattus norvegicus. Description: Bioavailability in male Sprague-Dawley rats, after the po administration at a dose of 20.0(pmol/g/h). The series is classed as ADME, organism-based. As to conditions: in vivo.

Activity calls are given as the source filed them. The calls are words filed in the database; no cut-off is given here.

Chain of 5-hydroxytryptamine receptor 1B (P28222 whole entry): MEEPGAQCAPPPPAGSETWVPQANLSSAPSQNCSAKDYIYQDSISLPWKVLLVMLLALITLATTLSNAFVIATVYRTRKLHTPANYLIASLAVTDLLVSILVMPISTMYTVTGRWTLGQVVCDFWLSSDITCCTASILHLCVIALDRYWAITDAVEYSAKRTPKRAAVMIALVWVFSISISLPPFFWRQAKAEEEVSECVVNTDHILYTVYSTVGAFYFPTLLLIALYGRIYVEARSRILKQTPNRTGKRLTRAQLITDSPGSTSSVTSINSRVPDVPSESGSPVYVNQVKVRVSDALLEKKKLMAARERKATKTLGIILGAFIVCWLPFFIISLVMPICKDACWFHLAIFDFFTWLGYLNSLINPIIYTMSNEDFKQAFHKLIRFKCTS
T2 sequence (P61169 whole entry): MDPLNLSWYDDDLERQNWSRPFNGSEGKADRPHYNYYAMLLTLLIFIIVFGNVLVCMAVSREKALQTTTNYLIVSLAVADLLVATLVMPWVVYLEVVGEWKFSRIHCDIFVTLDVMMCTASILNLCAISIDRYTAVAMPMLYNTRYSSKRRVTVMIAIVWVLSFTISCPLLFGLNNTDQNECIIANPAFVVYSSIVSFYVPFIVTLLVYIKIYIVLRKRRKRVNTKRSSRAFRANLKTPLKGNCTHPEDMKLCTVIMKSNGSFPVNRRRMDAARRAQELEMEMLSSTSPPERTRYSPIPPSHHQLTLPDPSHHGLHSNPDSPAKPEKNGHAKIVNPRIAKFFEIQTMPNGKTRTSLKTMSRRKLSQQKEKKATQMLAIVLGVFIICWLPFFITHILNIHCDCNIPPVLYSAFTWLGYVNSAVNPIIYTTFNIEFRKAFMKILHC
T1 sequence (P19020 whole entry): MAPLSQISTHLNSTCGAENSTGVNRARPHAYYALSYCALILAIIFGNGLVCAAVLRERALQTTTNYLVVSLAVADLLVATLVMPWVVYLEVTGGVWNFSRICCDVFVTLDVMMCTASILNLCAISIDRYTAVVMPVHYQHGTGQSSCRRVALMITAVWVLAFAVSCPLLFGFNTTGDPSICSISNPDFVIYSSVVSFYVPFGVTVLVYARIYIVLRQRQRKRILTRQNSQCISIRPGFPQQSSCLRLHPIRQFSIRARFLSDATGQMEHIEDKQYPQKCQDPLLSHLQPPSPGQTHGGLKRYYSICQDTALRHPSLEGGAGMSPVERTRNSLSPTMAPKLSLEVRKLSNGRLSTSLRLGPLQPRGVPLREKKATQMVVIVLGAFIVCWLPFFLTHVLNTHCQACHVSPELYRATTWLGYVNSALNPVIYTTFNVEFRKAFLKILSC
Chain of 5-hydroxytryptamine receptor 1D (P28221 whole entry): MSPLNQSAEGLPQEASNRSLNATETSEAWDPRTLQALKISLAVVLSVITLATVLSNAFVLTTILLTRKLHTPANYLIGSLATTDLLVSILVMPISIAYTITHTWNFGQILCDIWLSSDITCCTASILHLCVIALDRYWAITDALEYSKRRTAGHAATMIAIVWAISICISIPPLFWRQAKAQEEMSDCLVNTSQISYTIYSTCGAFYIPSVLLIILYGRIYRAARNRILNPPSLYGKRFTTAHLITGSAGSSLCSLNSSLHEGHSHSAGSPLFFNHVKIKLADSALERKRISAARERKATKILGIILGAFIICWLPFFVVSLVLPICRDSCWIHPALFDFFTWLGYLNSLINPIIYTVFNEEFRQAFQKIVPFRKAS

As usually defined, the ED50 is the dose that gives a 50% effect, or the effect in half of the subjects. Usually Ki stands for the dissociation constant of the complex between target and ligand, obtained from inhibition or displacement. With `CCCN(CCC)C1CCc2ccc3[nH]cc(C=O)c3c2C1` (stereo unspecified), the ED50 result in the series on Rattus norvegicus [1] is “inactive”. Besides, the Ki worked out at 70 nM at D(3) dopamine receptor [2], 173 nM in series [3] and 364 nM in series [4]. In addition, the ED50 in the series on Rattus norvegicus [5] came to 3.34 µmol/kg.
As for `CCCN(CCC)[C@@H]1CCc2cc(F)c3[nH]cc(C=O)c3c2C1`, the figures for the ED50 with Rattus norvegicus [6], with Rattus norvegicus [8] and with Rattus norvegicus [10] were 0.083 µmol/kg, 0.084 µmol/kg and 0.078 µmol/kg, respectively. Moreover, the Ki at D(2) dopamine receptor [7] worked out at 48 nM; on D(3) dopamine receptor [2], 55 nM; in series [9] it was 0.3 nM; in [3] it was 4.4 nM. In the series with Rattus norvegicus [1], the ED50 result was “inactive”.
For `CCCN(CCC)C1CCc2ccc3[nH]cc(S(C)(=O)=O)c3c2C1` (stereo unspecified), the inhibition constant (Ki) in series [9] was 11 nM; in series [3] it was 52 nM; at D(2) dopamine receptor [11] it was 265 nM; in series [4], 373 nM; on D(3) dopamine receptor [12], “Not Active”.
For orientation: bioavailability means the share of a dose that reaches the circulation, judged against a reference dose that is usually intravenous. A word on the Tmax: it is the time at which the peak concentration occurs. `CCCN(CCC)C1CCc2ccc3[nH]cc(C#N)c3c2C1` (stereo unspecified): the Ki at D(3) dopamine receptor [13] is 43 nM; in series [9], 0.4 nM; in series [3], 7.5 nM; at D(2) dopamine receptor [11] it was 24 nM; in [4], 38 nM. This compound displayed a bioavailability in series [14] of 54%. In addition, the Tmax in series [15] is 2 h. Moreover, the AUC is listed as 1115 pM ml-1 in the series with Rattus norvegicus [16] and 4849 pM ml-1 with Rattus norvegicus [19]. Further, the median effective dose (ED50) result in the series on Rattus norvegicus [17] is “Weak activity”. Also, the T max in series [18] was found to be 135 h.
For the compound `CCCN(CCC)[C@@H]1CCc2ccc3[nH]c(C#N)cc3c2C1` [U-92,016-A], the results for the AUC with Rattus norvegicus [20] and with Rattus norvegicus [23] were 1817 pM ml-1 and 2857 pM ml-1, respectively. Besides, the Tmax worked out at 75 h in series [21] and 4 h in series [22]. In addition, in the series on Rattus norvegicus [24], the ED50 entry is “inactive”. This compound also gave a bioavailability in series [25] of 63%. In addition, the ED50 ratio in series [26] amounted to 38.
On to `CCCN(CCC)C1CCc2cccc(O)c2C1` (stereo unspecified) [8-OH-DPAT], for which the values for the Ki at D(2) dopamine receptor [7] and on D(3) dopamine receptor [2] were 1130 nM and 333 nM, respectively. Besides, the ED50 entry in the series on Rattus norvegicus [1], in the series with Rattus norvegicus [29] and with Rattus norvegicus [30] was “inactive” in each case. In addition, the AUC stood at 213 pM ml-1 in the series on Rattus norvegicus [27] and 104 pM ml-1 in the series on Rattus norvegicus [33]. For the same compound, the values for the Tmax in [28] and in series [31] were 0.483 h and 3 min, respectively. For the same compound, the F in the series on Rattus norvegicus [32] was 2.4%.
